Measurements as given in paper PMC7595202, “Indole hydrazide compound ZJQ-24 inhibits angiogenesis and induces apoptosis cell death through abrogation of AKT/mTOR pathway in hepatocellular carcinoma” (Cell Death & Disease, 2020).

Molecular target: mTOR (Homo sapiens, UniProt P42345)
Test: in vitro kinase activity assay at ATP near Km; also anti-Raptor immunoprecipitated mTORC1 kinase assay (HepG2/HUH-7) with GST-S6K1 substrate
Format: biochemical

Which EC50 does the source give for `COc1ccc(C=NNC(=O)c2cc3cc(Cl)ccc3[nH]2)c(OC)c1` [ZJQ-24, 5-chloro-N’-(2,4-dimethoxybenzylidene)−1H-indole-2-carbohydrazide] here?
The EC50 was 40.6 µM.
